In patent publication US20230310459A1, “NEUROACTIVE STEROIDS AND THEIR METHODS OF USE” (Sage Therapeutics, Inc., priority 2017, published 2023):

Tests used:
Type in all cases: in vivo, human
[1] = tested on: Subjects with Major Depressive Disorder; assay: Phase 2 open-label study (Part A): HAM-D, MADRS, HAM-A efficacy
Protocol: In this multicenter, open-label, Phase 2 clinical trial, subjects were administered 30 mg Compound 1 on Days 1-14 and assessed through Day 28. Reductions in depressive and anxiety symptoms were assessed by the Hamilton Rating Scales for Depression and Anxiety (HAM-D and HAM-A), and the Montgomery-Asberg Depression Rating Scale (MADRS). Safety and tolerability were assessed via standard safety parameters. Pharmacokinetic parameters were also evaluated.
Written informed consent was provided at screening and was required for enrollment. The diagnosis of MDD was made using the Structured Clinical Interview for Diagnostic and Statistical Manual of Mental Disorders, Fifth Edition (DSM-5) Axis I Disorders (SCID-I), as performed by a qualified healthcare professional. Subjects were also screened with the 17-item Hamilton Rating Scale for Depression (HAM-D) to ensure symptom severity of at least 22. Hamilton Anxiety Rating Scale (HAM-A), Montgomery-Asberg Depression Rating Scale (MADRS), and Clinical Global Impression-Severity (CGI-S) scale were also administered. Using the 17-item HAM-D scale, a patient with a summed score of 17-23 was considered to have moderate depression; a summed score of ≥24 was considered severe depression. Patient histories and concomitant medication information were collected. The study population included subjects of both sexes, ages 18-65 years old, inclusive (inclusion/exclusion criteria below). Subjects remained as inpatients during the first 7 days of the study period and per Investigator's judgement thereafter. Subjects received the standard of care for adult inpatients diagnosed with MDD and were allowed to remain on a stable dose of psychotropic medications that were initiated at least 14 days prior to screening.
(§1) Compound 1 was provided as a 6 mg/mL stock aqueous solution, which was further diluted with sterile water to achieve the selected dose that was administered as an oral solution. Participants received an open label 30 mg Compound 1 oral dose administered at 8:00 PM (+/−15 minutes) with food on Days 1 through 14. Subjects who experienced drug-related moderate or severe adverse events (as judged by the study investigators) while receiving the 30 mg dose of study drug were to have their dose reduced to 20 mg for the remaining treatment period. Any subjects not tolerating a 20 mg dose were to be terminated from the study. Vital signs were collected daily. Other study procedures and plasma collection for PK parameters were conducted at various times during the 14-day open label treatment period (procedure details in the Supplemental Appendix). Treatment follow-up was conducted on an outpatient basis and included a follow-up visit at 1 week (21+/−1 day) and at 2 weeks (28+/−1 day) after the last dose of the study drug.
(§2) The primary endpoint of safety and tolerability of Compound 1 was assessed by the frequency and severity of adverse events, vital signs, changes in clinical laboratory measures, physical exams, electrocardiograms (ECGs), the Stanford Sleepiness Scale (SSS) score, and suicide ideation using the Columbia-Suicide Severity Rating Scale (C-SSRS, Supplemental Table 1). Secondary efficacy endpoints included: change from baseline in HAM-D total score, HAM-D response, defined as having a 50% or greater reduction from baseline in HAM-D total score, HAM-D remission, defined as having a HAM-D total score of ≤7, HAM-A change from baseline, and MADRS score change from baseline. The PK profile of Compound 1 was also determined from plasma samples.
Continuous parameters were summarized as n, mean, and standard deviation, with categorical variables summarized as frequency counts and percentages. For HAM-D, HAM-A, and MADRS total scores, p-values for change from baseline values were calculated based on mixed effects model for repeated measures with visit as fixed effect, adjusting for baseline total score. […]

[2] = Phase 2 open-label study (Part A): plasma pharmacokinetics; conditions: 30 mg oral solution once daily with food, N=13
Protocol: as §1, §2

[3] = tested on: Adult patients with moderate to severe Major Depressive Disorder (MDD); assay: Phase 2 double-blind placebo-controlled trial (Part B): HAM-D efficacy
Protocol: In the randomized, double-blind, parallel-group, placebo-controlled trial, eligible patients (with a minimum total score of 22 on the Hamilton Rating Scale for Depression) were stratified based on use of antidepressant treatment (current/stable or not treated/withdrawn ≥30 days) and randomized in a 1:1 ratio to receive Compound 1 Capsules (30 mg) or matching placebo. All doses of study drug were administered at night with food. The study consisted of a 14-day treatment period, and a 4-week follow-up period. The mean HAM-D total scores at baseline were 25.2 for the Compound 1 group and 25.7 for the placebo group (overall range 22-33), representing patients with moderate to severe MDD. Approximately 90 percent of patients in each group completed the study.

[4] = Day 15, 30 mg once daily Days 1-14, N=13

With `C[C@@]1(O)CC[C@H]2[C@H](CC[C@@H]3[C@@H]2CC[C@]2(C)[C@@H](C(=O)Cn4cc(C#N)cn4)CC[C@@H]32)C1` [Compound 1, 1-(2-((3R,5R,8R,9R,10S,13S,14S,17S)-3-hydroxy-3,13-dimethylhexadecahydro-1H-cyclopenta[a]phenanthren-17-yl)-2-oxoethyl)-1H-pyrazole-4-carbonitrile] the “HAM-D remission rate (HAM-D total score ≤7)” value ([1]; Day 15, end of the treatment period, N=13) was 62%, the “HAM-A total score, mean decrease from baseline” value [1, 4] was 15.5 points and the “HAM-D total score, mean decrease from baseline” value [1, 4] was 19.9 points. The “MADRS total score, mean decrease from baseline” value [1, 4] was 26.4 points, the “HAM-A mean total score” value ([1]; Day 15, 30 mg once daily Days 1-14, baseline 23.2, N=13) was 7.7 and the “MADRS mean total score” value ([1]; Day 15, 30 mg once daily Days 1-14, baseline 36.9, N=13) was 10.5. The “HAM-D mean total score” value ([1]; Day 15, 30 mg oral solution once daily Days 1-14 with food, baseline 27.2, N=13) was 7.3, the HAM-D response rate ([1]; Day 15, absence of antidepressants at enrollment (n=8)) was 75.0% and the “HAM-D response rate (total score reduced by at least 50%)” value ([1]; Day 15, all 13 subjects) was 85%. The HAM-D response rate ([1]; Day 15, presence of antidepressants at enrollment (n=5)) was 100%, the HAM-D response rate ([1]; Day 28, absence of antidepressants at enrollment (n=8)) was 75% and the HAM-D response rate ([1]; Day 28, presence of antidepressants at enrollment (n=5)) was 80%. The “HAM-D remission rate (HAM-D total score ≤7)” value ([1]; by Day 6, N=13) was 39%, the “time at which significant reductions in depressive symptoms (HAM-D) were seen” value ([1]; p<0.05, 30 mg once daily) was “as early as Day 2” and the “Cavg ss, geometric mean” value ([2]; Day 7, steady state) was 41.4 ng/mL. It also gave a Cmax ([2]; human, plasma, Day 7, steady state, MDD subjects, read-out: Cmax, geometric mean) of 101 ng/mL, an AUC(0-t) ([2]; human, plasma, Day 7, steady state, read-out: AUC0-t, geometric mean) of 992 ng·h/mL and an AUC(0-inf) ([2]; human, plasma, Day 7, steady state, read-out: AUCinf, geometric mean) of 1150 ng·h/mL. The half-life ([2]; human, plasma, Day 7, read-out: T1/2, median (converted)) was 10.3 h, the Tmax ([2]; human, plasma, Day 7, read-out: Tmax, median) was 1.1 h and the “onset of improvement in HAM-D total score compared to placebo” value ([3]; Capsules 30 mg at night with food) was “significant by the morning following the first dose (Day 2)”. For the same compound, the “HAM-D total score, mean reduction from baseline” value ([3]; Day 15, Capsules 30 mg at night with food for 14 days, baseline 25.2, placebo 10.7) was 17.6 points, the “HAM-D total score, least squared mean difference from placebo” value ([3]; Day 15, p<0.0001) was −7.0 and the “remission rate (HAM-D total score not more than 7)” value ([3]; Day 15, placebo 23 percent, p=0.0005) was 64%. The “HAM-D total score, mean reduction from baseline” value ([3]; Week 4, placebo 11.9, p=0.0243) was 15.6, the remission rate ([3]; Week 4, placebo 28 percent, p=0.0221) was 52% and the “HAM-D total score, mean reduction from baseline” value ([3]; Week 6, placebo 13.0, not statistically improved) was 15.0. It also gave a remission rate ([3]; Week 6, placebo 33 percent, not significant) of 45%.
